Laboratory results from patent US6812034B2, “Fetuin-MGP-mineral complex in serum assayed to determine calcification risk” (The Regents of the University of California, priority 2000, dated 2004).

Assays:
[1] = tested on: vitamin D-induced artery calcification; assay: mineral phosphate accumulation in acid demineralization extracts of thoracic aorta and carotid arteries, vitamin D plus warfarin; format: in vivo, rat
Procedure: Tissues were subsequently washed extensively with buffer and extracted with 1 ml of 10% formic acid for 24 h at room temperature, as described. Calcium levels in serum were determined colorimetrically using cresolphthalein complexone (Sigma) and phosphate levels in serum and in acid tissue extracts were determined calorimetrically as described (Zhu et al. (1994) Cardiology, 85: 370-377). Tissue sectioning and staining were carried out by Biomedical Testing Services, Inc., (San Diego, Calif.). The effect of bisphosphonates on artery calcification was first examined in rats in which artery calcification was induced by treatment with warfarin plus high doses of vitamin D. […] All animals were killed by exsanguination at 96 h. […] All animals were killed by exsanguination at 96 h after the first vitamin D dose. […] All animals were killed by exsanguination 96 h after the first vitamin D injection.

[2] = serum levels of calcium, phosphate, MGP and BGP after subcutaneous bisphosphonate; format: in vivo, rat; settings: for Ionic calcium / total calcium: 8 mg/100 g
Procedure: Rats were fed rodent diet 5001 (Purina Mills Inc., St. […] Etidronate was dissolved with 0.15 M NaCl, titrated to pH 7.4 with dilute NaOH, and administered subcutaneously to forty-day-old male rats. Control animals received injections of 0.15 M NaCl only. […] At the times indicated in FIG. 1, each rat was anesthetized with metofane and a 400 μl sample of blood was withdrawn from the jugular vein. Blood samples were allowed to clot for 15 min at room temperature and serum was obtained after centrifugation in a clinical centrifuge and then frozen rapidly on dry ice and stored at -70° C. until later analysis. The same procedure was followed for the second time course experiment (FIG. 10), with the difference that the etidronate dose was increased to 32 mg per 100 g body weight. […] Two hours later, all rats were injected with etidronate at a dose of 8 mg/100 g (t=0), and 400 μl of blood were removed from each animal at the indicated times for biochemical analyses. […] In neither control group could we detect a significant change in serum levels of calcium, phosphate, or MGP at any time point. […] Rice et al. (1994) J. Bone Min. Res. 9: 567-576). Calcium levels in serum and other samples were determined colorimetrically using cresolphthalein complexone (Sigma) and phosphate levels in serum, effluent fractions, and other samples were determined calorimetrically as described (Chen et al. (1956) Anal. Chem. 28(11): 1756-1758). For determination of ionic calcium, freshly obtained blood samples were immediately placed into a 2.5 ml gold top vacutainer tube to avoid out gassing of CO2 and the associated shift in pH. […] Electrophoresis was carried out using 4 to 20% polyacrylamide gels (Novex, Inc., San Diego, Calif.) run in Tris-glycine buffer containing SDS. Protein sequencing was carried out on bands transferred to PVDF membranes using a Procise 494 Sequencer (ABI division, PE Biosystems, Foster City, Calif.).

CC(O)(P(=O)(O)O)P(=O)(O)O [Etidronate, (1-hydroxyethylylidene)-bisphosphonate]
dose required to reduce the extent of mineralization by half in the thoracic aorta ([1]; 84 h, FIG. 3): 2 mg P/kg/day | dose required to reduce the extent of mineralization by half in the carotid artery ([1]; 84 h, FIG. 4): 2 mg P/kg/day | Artery Calcification Dose for 50% inhibition ([1]; daily subcutaneous dose, vitamin D-induced artery calcification, male rats initially 200 g): 2 mg P/kg/day | Artery Calcification Relative potency ([1]; relative to etidronate = 1): 1 | increase in serum calcium, phosphate and MGP compared with the 8 mg/100 g dose ([2]; 4 mg/100 g body weight, 6 h, data not shown): smaller increase | elevation of serum calcium ([2]; 8 mg/100 g body weight sc): 1.8 fold | elevation of serum phosphate ([2]; 8 mg/100 g body weight sc): 1.6 fold | serum MGP ([2]; 8 mg/100 g body weight sc): 12 µg/mL | serum calcium ([2]; 8 mg/100 g body weight sc): 4.3 mM | serum phosphate ([2]; 8 mg/100 g body weight sc): 5.6 mM | time at which serum mineral complex reaches maximal levels ([2]; 8 mg/100 g sc): 6 h | time by which serum mineral complex is cleared from serum ([2]; 8 mg/100 g sc): ≤ 24 h | time of peak level of MGP ([2]; 8 mg/100 g sc): 6 h | time of peak serum BGP level ([2]; 8 mg/100 g sc): 1 h | time to half of maximal serum MGP levels ([2]; 8 mg/100 g sc): 3 h | time to half of maximal serum calcium and phosphate levels ([2]; 8 mg/100 g sc): 1 h | phosphate above control levels ([2]; 8 mg/100 g sc, by 6 h): 59% | total calcium above control levels ([2]; 8 mg/100 g sc, by 6 h): 76% | maximum elevation of serum BGP ([2]; 8 mg/100 g sc, data not shown): 3 fold | Ionic calcium ([2]; 1 h): 1.47 ± 0.04 mM | total calcium ([2]; 1 h): 3.45 ± 0.34 mM | Ionic calcium ([2]; 2 h): 1.51 ± 0.04 mM | total calcium ([2]; 2 h): 4.05 ± 0.44 mM | Ionic calcium ([2]; 6 h): 1.46 ± 0.03 mM | total calcium ([2]; 6 h): 4.41 ± 0.43 mM | time of maximal level in serum total calcium, phosphate and MGP ([2]; 32 mg/100 g sc): 6 to 9 h | level of serum ionized calcium ([2]; 32 mg/100 g sc, 6 h): no increase | serum levels of total calcium, phosphate and MGP ([2]; 32 mg/100 g sc, 24 h): remained substantially elevated | increase in serum MGP levels ([2]; 32 mg/100 g, within 6 h): 36 fold | increase in serum phosphate levels ([2]; 32 mg/100 g, within 6 h): 2.5 fold | serum MGP ([2]; 32 mg/100 g, within 6 h): 18 µg/mL | serum phosphate ([2]; 32 mg/100 g, within 6 h): 8.6 mM | total serum calcium ([2]; 32 mg/100 g, within 6 h): 8.8 mM
